Assay results taken from patent US20100298352A1, “SMALL MOLECULE INHIBITORS OF CANCER STEM CELLS” (University of Pittsburgh - Of the Commonwealth System of …, priority 2009, published 2010).

Tests used:
Format in all cases: cell-based, human
[1] = system: Oct3/4-GFP+ MCF7 cells; test: Screen for selective inhibition of Oct3/4-GFP+MCF7 cells (GFP level / cell viability, 384 well plates); conditions: initial screen; 3 day exposure, 5 μM, triplicate samples, relative changes in GFP levels
Method: MCF7 cells were used as the target population. Control cells consisted of Oct3/4-GFP-cells that were infected with a GFP-expressing lentivirus as a way of controlling for GFP expression. Initial screenings were performed in 384 well plates on triplicate samples. A fluorescent plate reader was used to quantify relative changes in GFP levels after a 3 day exposure to a 5 μM concentrations of each compound. […] These experiments were performed in 12 well plates in which 2000 cells/well were initially seeded and allowed to attach for one day. The following day (day 0), the medium was replaced with fresh medium containing the indicated concentrations of each compound. Cell counts were then performed manually on triplicate wells. Bars represent standard errors.
The cell viability assay was performed as follows:
Trypsinize cell and resuspend in MCF7 culture medium at a density of 4×10^4/ml Culture medium: alpha MEM, 10% FBS, 2 mM Glutamine, 1 mM Sodium Pyruvate, 1 mM non-essential amino acids, 100 U/ml Penicillin/Streptomycin
(1) dilute compounds to 30 μM using alpha MEM
(2) add 5 μl compounds to each well (final concentration 5 μM)
(3) add 25 μl cell suspension to each well (1000 cells/well)
(4) incubate cells with compounds for 72 hours at 37° C., 5% CO2
3. […] The plates were then read on SpectraMax M5 Microplate Reader using the wavelength of excitation 560 nm/emission 590 nm.

[2] = system: Oct3/4-GFP+MCF7 cells versus unfractionated MCF7 cells; test: Differential chemotherapeutic responses, viable adherent cell counts by trypan blue exclusion; conditions: FIG. 6; viable adherent cells over time
Method: FIG. 6. Differential chemotherapeutic responses of MCF7 and Oct3/4-GFP+MCF7 cells. 10^5 unfractionated, MCF7 cells (dotted line) or Oct3/4GFP+MCF7 cells (broken line) were seeded into 6 well plates and allowed to achieve ca. 30-50% confluence. The indicated concentrations of adriamycin, etoposide, 5-fluorouracil, cis-platinum, methotrexate, and taxol were then added (day 0). The total number of viable adherent cells was then determined at the indicated times by trypan blue exclusion. […] Note that in most cases Oct4/4-GFP+MCF7 actually grew in the presence of all agents. These experiments were repeated at least two additional times with similar outcomes.
Differential chemosensitivities of Oct3/4-GFP+MCF7 cells. It is believed that CSCs are more resistant to chemotherapeutic agents than TACs, thus at least partly accounting for the propensity of many tumors to relapse after an initial response. To test this idea, MCF7 cells and Oct3/4-GFP+MCF7 CSCs were exposed to six different chemotherapeutic agents commonly employed to treat breast cancer.

[3] = system: MCF7 cells and Oct3/4-GFP+MCF7 cell population; test: Hoechst 33342 side population (SP) exclusion; conditions: exposure to 20 μM Reserpine; SP fractions of MCF7 and Oct3/4-GFP+MCF7 cells
Method: In other studies, Oct3/4-GFP+MCF7 cells were examined by qRT-PCR for expression of the breast cancer CSC markers CD133 and Oct3/4. After normalizing to GAPDH, the ratios of these transcripts in Oct3/4-GFP+MCF7 cells and non-CSC-MCF7 cells were 6.3 for CD 133 and 2.5 for Oct3/4. […] The SP is due to CSCs ability to exclude the dye Hoechst 33342 and reflects high expression of ABCG2 transporters such as MDR1 and BRCP. […] These fractions could also be reduced by >70% following exposure to 20 μM Reserpine, which inhibits ABC transporters. Moreover, the overall mean fluorescence intensity of the entire Oct3/4-GFP+MCF population was two-fold lower than that of the MCF7population. Thus, based on independent qRT-PCR assessments of CSC gene expression profiles and on uptake/exclusion of Hoechst 33342, one can conclude that the Oct3/4-GFP+MCF7 population consists of highly enriched and stable cells that are unable to differentiate into TACs.

Structure (SMILES) | selectivity for Oct3/4-GFP+MCF7 cells over control GFP-lentivirus cells [1] | further results
Cl.NC[C@@H]1O[C@H](C23CC4CC(CC(C4)C2)C3)Cc2c1ccc(O)c2O [A77636] | potentially selective agents | 
CC(=O)c1c(O)c(C)c(O)c(Cc2c(O)c3c(c(C(=O)/C=C/c4ccccc4)c2O)OC(C)(C)C=C3)c1O [Rottlerin, 5,7-dihydroxy-2,2-dimethyl-6-(2,4,6-trihydroxy-3-methyl-5-acetylbenzyl)-8-cinnamoyl-1,2-chromene] | potentially selective agents | 
CC(=O)O[C@H]1C(=O)[C@@]2(C)[C@H]([C@H](OC(=O)c3ccccc3)[C@]3(O)C[C@H](OC(=O)[C@H](O)[C@@H](NC(=O)c4ccccc4)c4ccccc4)C(C)=C1C3(C)C)[C@]1(OC(C)=O)CO[C@@H]1C[C@@H]2O [taxol] |  | sensitivity/resistance of Oct3/4-GFP+MCF7 cells relative to MCF7 cells [2]: significantly more sensitive
COC(=O)[C@H]1[C@H]2C[C@@H]3c4[nH]c5cc(OC)ccc5c4CCN3C[C@H]2C[C@@H](OC(=O)c2cc(OC)c(OC)c(OC)c2)[C@@H]1OC [Reserpine] |  | reduction of side population (SP) fractions [3]: > 70%
